This is an account of results in article PMC10382516, “Exploring ND-011992, a quinazoline-type inhibitor targeting quinone reductases and quinol oxidases” (Scientific Reports, 2023).

The term IC50 denotes the concentration at which inhibition is half-maximal. The low end stands for higher potency, the high end for lower potency.

Data set [1] concerns the target mitochondrial complex I (Bos taurus, UniProt P03887+P17694+P42026). The data set is classed as biochemical, bovine.
Data set [2] addresses T1, E. coli bo3 oxidase (Escherichia coli, UniProt P0ABI8).
T1 construct: made in house; host or cells: E. coli BL21*Δcyo/pET28b(+)::cyoAhisBCD
The data set is described as follows: Duroquinol:oxygen oxidoreductase activity of isolated bo3 oxidase. The data set is classed as biochemical. Here is the method:
(§1) E. coli bd-I oxidase was isolated from strain BL21*Δcyo/pET28b( +)::cydAhisBX[13], bd-II oxidase from strain BL21*Δcyo/pET28b( +)::appChisBX[19] and bo3 oxidase from strain BL21*Δcyo/pET28b( +)::cyoAhisBCD (see ‘Methods’). The index “his” indicates the subunit of the enzyme complexes decorated with a His-tag. All strains were grown under oxic conditions in full medium. Cells were harvested and disrupted and cytoplasmic membranes were prepared by differential centrifugation. Membrane proteins were extracted with the detergent lauryl maltose neopentyl glycol (LMNG) and purified to homogeneity by affinity-, anion exchange- and size exclusion-chromatography (see Supplementary Figs. S7–S9).
Because it was claimed that ND-011992 is an inhibitor specific for bd oxidases, we also determined its IC50 towards the isolated bo3 oxidase. As bd oxidases, bo3 oxidase is also a quinol oxidase.
The duroquinol:oxygen oxidoreductase activity of isolated E. coli bd-I, bd-II and bo3 oxidase was determined by monitoring the oxygen consumption with a Clark-type oxygen electrode (Oxyview System, Hansatech Instruments)[20],[33]. All steps were conducted at 30 °C. The reaction chamber was filled with 2 mL 20 mM MOPS, 20 mM NaCl, 0.003% LMNG, pH 7.0. […] The non-enzymatic reaction rate was determined. […] Each data point was measured in triplicates. […]

Details of data set [3]: method as in PMID 33283973. The settings on record: as mentioned in the original publication; cited from earlier work.
The target of data set [4] is respiratory complex I (Escherichia coli, UniProt P0AFC7+P0AFD4+P33599). The data set is described as follows: d-NADH:decyl-ubiquinone oxidoreductase activity of E. coli CBO cytoplasmic membranes. The class given is biochemical. The settings on record: 1 mM KCN.
Data set [5] deals with d-NADH oxidase activity of BL21*Δcyo membranes. The data set is described as follows: d-NADH oxidase activity of E. coli BL21*Δcyo cytoplasmic membranes. The data set is classed as biochemical, Escherichia coli. The settings on record: d-NADH as substrate, 30 °C. How it is done:
(§2) The inhibitory effect of ND-011992 on the NADH oxidase activity of membranes from E. coli strain BL21*Δcyo was determined. This activity is mainly mediated by the primary NADH dehydrogenases and the terminal oxidases. Strain BL21*Δcyo chromosomally lacks the bo3-oxidase and contains the homologous bd-I and bd-II oxidases as the only terminal oxidases. BL21*Δcyo was grown in full medium, cells were harvested and disrupted and cytoplasmic membranes were prepared by differential centrifugation. With NADH as substrate, electrons might enter the respiratory chain either via complex I or via the alternative, non-energy converting NADH dehydrogenase, NDH-II. […] Second, deamino-NADH (d-NADH) was used as substrate to determine the d-NADH oxidase activity of BL21*Δcyo membranes. d-NADH is a substrate specific for complex I preventing electron entry to the respiratory chain via NDH-II[15],[16]. […] The shift of the IC50 in dependence from the substrate already indicates a high-affinity inhibition of respiratory complex I by ND-011992.
(§3) The (d-)NADH oxidase activity of cytoplasmic membranes was determined with an Clark-type oxygen electrode (Oxyview System, Hansatech Instruments) at 30 °C[19]. […] The non-enzymatic reaction was determined after formation of a stable baseline. […] The protein concentration of membranes were determined by the biuret-method[32]. […]

Data set [6] deals with T2, E. coli bd-II oxidase (Escherichia coli, UniProt P26459).
T2 construct: His-tag; made in house; host or cells: E. coli BL21*Δcyo/pET28b(+)::appChisBX
Description: Duroquinol:oxygen oxidoreductase activity of isolated bd-II oxidase. The data set is classed as biochemical. How it is done: as §1
(§4) The affinity of ND-011992 towards the isolated oxidases was determined by its inhibition of the duroquinol:oxygen oxidoreductase activity measured as decrease of oxygen concentration. […] Thus, there is a significant two-fold difference in binding of ND-011992 towards the two homologous oxidases. Furthermore, the IC50 is higher than that to respiratory complex I, showing that the compound binds better to complex I than to bd-I and to bd-II oxidase. Incorporation of bromine to the compound led to significant changes of inhibition.
(§5) The duroquinol:oxygen oxidoreductase activity of isolated E. coli bd-I, bd-II and bo3 oxidase was determined by monitoring the oxygen consumption with a Clark-type oxygen electrode (Oxyview System, Hansatech Instruments)[20],[33]. All steps were conducted at 30 °C. The reaction chamber was filled with 2 mL 20 mM MOPS, 20 mM NaCl, 0.003% LMNG, pH 7.0. After formation of a stable baseline, 10 μL dithiothreitol (DTT) (1 M) and 5 μL duroquinone in ethanol (100 mM) were added and incubated for 1 min. The non-enzymatic reaction rate was determined. 10 μL enzyme in LMNG (2 mg/mL) were added to start the reaction. The rates were corrected for the non-enzymatic reaction. After 1 min, the reaction was inhibited by adding various amounts (0.01–50 µM) of ND-011992 and 2, respectively. Each data point was measured in triplicates. The standard deviation of each measurement is provided.

The target of data set [7] is T3, E. coli bd-I oxidase (Escherichia coli, UniProt P0ABJ9).
T3 construct: His-tag; made in house; host or cells: E. coli BL21*Δcyo/pET28b(+)::cydAhisBX
The data set is described as follows: Duroquinol:oxygen oxidoreductase activity of isolated bd-I oxidase. The class given is biochemical. How it is done:
as §1, §4, §5

The test system of data set [8] is NADH oxidase activity of membranes from E. coli strain BL21*Δcyo. The data set is described as follows: NADH oxidase activity of E. coli BL21*Δcyo cytoplasmic membranes (Clark-type oxygen electrode). The class given is biochemical, Escherichia coli. How it is done:
as §2, §3

T3 sequence (P0ABJ9 whole entry): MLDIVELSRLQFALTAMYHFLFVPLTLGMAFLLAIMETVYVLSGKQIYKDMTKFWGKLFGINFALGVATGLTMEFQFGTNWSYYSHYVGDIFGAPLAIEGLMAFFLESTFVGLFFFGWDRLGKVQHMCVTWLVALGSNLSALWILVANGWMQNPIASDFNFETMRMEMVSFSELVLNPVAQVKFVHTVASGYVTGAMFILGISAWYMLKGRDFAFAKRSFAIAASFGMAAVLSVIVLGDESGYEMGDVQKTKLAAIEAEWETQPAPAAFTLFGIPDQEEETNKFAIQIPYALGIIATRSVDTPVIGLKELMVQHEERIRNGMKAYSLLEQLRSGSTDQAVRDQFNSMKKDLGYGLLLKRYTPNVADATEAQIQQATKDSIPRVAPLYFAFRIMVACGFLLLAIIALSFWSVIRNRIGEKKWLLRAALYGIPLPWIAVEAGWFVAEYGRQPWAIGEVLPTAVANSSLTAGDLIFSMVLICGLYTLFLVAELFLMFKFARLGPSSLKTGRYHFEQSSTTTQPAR
T3 sequence (P56100 whole entry, further chain): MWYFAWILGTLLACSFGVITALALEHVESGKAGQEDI
T3 sequence (P0ABK2 whole entry, further chain): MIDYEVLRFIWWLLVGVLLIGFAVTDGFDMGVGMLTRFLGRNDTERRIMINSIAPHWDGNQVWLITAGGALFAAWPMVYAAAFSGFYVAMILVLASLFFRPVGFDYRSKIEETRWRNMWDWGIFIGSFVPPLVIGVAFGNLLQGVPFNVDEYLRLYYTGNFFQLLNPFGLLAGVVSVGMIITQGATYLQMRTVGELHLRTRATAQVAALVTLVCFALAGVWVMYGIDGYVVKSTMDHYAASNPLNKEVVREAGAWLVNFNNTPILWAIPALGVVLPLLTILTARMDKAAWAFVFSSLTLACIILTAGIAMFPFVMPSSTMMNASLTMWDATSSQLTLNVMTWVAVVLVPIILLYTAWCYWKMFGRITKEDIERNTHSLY
T2 sequence (P26458 whole entry): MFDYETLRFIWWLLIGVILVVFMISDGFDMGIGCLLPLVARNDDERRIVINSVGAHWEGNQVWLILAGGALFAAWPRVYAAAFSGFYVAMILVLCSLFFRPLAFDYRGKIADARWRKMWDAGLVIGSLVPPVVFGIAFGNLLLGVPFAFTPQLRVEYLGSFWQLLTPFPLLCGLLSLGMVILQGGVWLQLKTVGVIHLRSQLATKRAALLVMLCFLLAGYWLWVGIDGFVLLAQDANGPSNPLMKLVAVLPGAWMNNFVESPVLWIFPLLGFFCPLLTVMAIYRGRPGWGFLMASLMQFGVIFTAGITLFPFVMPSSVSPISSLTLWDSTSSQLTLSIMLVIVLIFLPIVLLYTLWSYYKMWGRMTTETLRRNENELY
T2 sequence (P24244 whole entry, further chain): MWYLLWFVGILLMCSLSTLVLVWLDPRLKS
T2 sequence (P26459 whole entry): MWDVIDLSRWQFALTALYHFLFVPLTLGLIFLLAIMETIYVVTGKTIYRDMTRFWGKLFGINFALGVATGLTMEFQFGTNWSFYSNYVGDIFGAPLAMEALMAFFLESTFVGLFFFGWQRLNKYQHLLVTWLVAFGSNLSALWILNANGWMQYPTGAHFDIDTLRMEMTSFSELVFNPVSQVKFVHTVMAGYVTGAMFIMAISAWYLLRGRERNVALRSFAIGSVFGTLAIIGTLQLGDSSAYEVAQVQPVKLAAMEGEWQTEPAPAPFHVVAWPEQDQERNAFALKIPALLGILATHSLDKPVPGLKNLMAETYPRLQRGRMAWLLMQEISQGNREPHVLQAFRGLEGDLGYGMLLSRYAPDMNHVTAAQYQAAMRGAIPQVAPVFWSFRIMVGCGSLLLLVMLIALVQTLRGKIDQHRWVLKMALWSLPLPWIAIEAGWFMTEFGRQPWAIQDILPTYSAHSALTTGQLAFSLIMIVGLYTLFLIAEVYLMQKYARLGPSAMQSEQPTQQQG
T1 sequence (P0ABJ6 whole entry): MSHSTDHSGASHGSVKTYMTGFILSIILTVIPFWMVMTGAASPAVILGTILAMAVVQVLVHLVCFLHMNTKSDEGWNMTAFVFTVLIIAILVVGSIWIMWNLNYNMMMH
T1 sequence (P0ABJ3 whole entry, further chain): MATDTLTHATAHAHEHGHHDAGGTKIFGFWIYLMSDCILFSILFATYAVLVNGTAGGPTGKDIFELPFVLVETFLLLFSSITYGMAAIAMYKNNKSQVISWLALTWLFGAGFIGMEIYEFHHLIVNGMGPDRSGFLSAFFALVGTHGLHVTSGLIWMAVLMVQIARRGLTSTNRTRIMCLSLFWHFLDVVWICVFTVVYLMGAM
T1 sequence (P0ABJ1 25-315, further chain): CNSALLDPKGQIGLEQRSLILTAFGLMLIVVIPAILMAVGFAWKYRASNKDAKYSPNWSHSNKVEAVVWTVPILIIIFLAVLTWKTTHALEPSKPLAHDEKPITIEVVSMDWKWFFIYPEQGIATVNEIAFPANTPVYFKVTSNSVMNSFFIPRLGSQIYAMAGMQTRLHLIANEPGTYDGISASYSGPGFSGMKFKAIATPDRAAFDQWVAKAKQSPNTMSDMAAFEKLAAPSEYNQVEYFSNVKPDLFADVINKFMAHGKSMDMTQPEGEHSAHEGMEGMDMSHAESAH
T1 sequence (P0ABI8 whole entry): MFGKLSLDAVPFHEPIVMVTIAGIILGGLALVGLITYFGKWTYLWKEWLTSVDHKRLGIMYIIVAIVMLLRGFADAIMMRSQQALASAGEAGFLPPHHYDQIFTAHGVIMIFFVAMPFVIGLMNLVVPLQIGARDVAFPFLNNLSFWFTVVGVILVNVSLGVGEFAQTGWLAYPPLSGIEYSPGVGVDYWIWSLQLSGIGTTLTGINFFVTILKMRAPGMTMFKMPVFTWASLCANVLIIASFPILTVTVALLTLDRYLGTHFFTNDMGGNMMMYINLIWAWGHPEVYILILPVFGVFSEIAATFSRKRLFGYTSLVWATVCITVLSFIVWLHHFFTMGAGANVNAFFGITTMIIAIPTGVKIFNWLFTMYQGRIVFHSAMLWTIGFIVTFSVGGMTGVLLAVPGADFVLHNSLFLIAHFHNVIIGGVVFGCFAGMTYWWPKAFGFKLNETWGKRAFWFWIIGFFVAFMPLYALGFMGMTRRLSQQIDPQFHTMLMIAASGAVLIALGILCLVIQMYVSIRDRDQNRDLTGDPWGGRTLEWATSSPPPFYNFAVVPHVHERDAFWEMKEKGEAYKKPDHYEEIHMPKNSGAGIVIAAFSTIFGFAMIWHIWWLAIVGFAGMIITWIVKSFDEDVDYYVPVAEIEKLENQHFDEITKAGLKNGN

Turning to `FC(F)(F)c1ccc(Oc2ccc(Nc3ncnc4ccccc34)cc2)cc1` [ND-011992, N-(4-(4-(trifluoromethyl)phenoxy)phenyl)quinazolin-4-amine], the IC50 in data set [1] is 3270 nM; in data set [2], 2470 nM; in data set [4], 120 nM; in data set [5], 260 nM; in data set [6] it was 1300 nM; in data set [7], 630 nM. For the same compound, the IC50 in data set [8] (E. coli BL21*Δcyo membranes, NADH as substrate, 30 °C) came out at 430 nM. Besides, the residual activity result in data set [1] (bovine heart mitochondrial membranes, NADH oxidase activity) is “about 20%”; in data set [2] (isolated bo3 oxidase, partial inhibition in titration), “about 20%”; in data set [6] (isolated bd-II oxidase, partial inhibition in titration), “about 20%”; in data set [7] (isolated bd-I oxidase, partial inhibition in titration), “about 20%”. Further, in data set [3], the pharmacokinetic properties result is recorded as “poor”.
Take `FC(F)(F)c1ccc(Oc2ccc(Nc3ncnc4ccc(Br)cc34)cc2)cc1` [compound 2, 6-bromo-N-(4-(4-(trifluoromethyl)phenoxy)phenyl)quinazolin-4-amine]: the concentration for half-maximal inhibition (IC50) turned out to be 130 nM in data set [6] and 1030 nM in data set [7]. Besides, in data set [8] (micromolar concentration range), the “effect on the NADH oxidase activity of E. coli membranes” value is “no effect”.
